Assay results: patent US10865191B2, “Heterocyclic compounds useful as modulators of TNF alpha” (BRISTOL-MYERS SQUIBB COMPANY, priority 2015, dated 2020)
pIC50: −log10 of the molar value. Where a name gives a salt, the structure may show the parent alone.

Molecular target: TNFα (Homo sapiens, UniProt P01375)
Test: TNF induced HEK-Blue assay (NF-kB-driven secreted alkaline phosphatase reporter)
Type: cell-based
Settings: TNFα 0.5 ng/mL, HEK-Blue-CD40L cells, 18 h; read-out: TNF induced HEK-Blue assay IC50 value
In short: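 HEK-Blue-CD40L cells (NF-kB-driven SEAP reporter), 20,000/well, added after 30 min pre-incubation of compound (0.004–25 μM final) with TNFα 0.5 ng/mL final at 37 °C; 18 h incubation. SEAP read with QUANTI-Blue at 620 nm; IC50 from 4-parameter logistic fit, normalized to unstimulated and stimulated DMSO controls.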

Chain of TNFα (P01375 77-233 limits assumed): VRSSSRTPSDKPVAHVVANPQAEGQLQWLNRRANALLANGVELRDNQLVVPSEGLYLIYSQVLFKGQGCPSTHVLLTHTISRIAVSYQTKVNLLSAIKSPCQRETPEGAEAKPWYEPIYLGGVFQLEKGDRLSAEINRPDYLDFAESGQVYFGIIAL

Compound | pIC50
C[C@@H](Nc1c(Cl)cnc2cc(F)c(-c3cnc(C(C)(C)O)nc3)cc12)c1cc(C#N)ccc1F [Example 379, (R)-3-(1-((3-chloro-7-fluoro-6-(2-(2-hydroxypropan-2-yl)pyrimidin-5-yl)quinolin-4-yl)amino)ethyl)-4-fluorobenzonitrile] | > 6.00
Cc1nc2ccc(-c3cnc(C(C)(C)O)nc3)cc2c(N[C@@H](c2cc(C#N)ccc2F)C(F)F)c1Cl [Example 380, (S)-3-(1-((3-chloro-6-(2-(2-hydroxypropan-2-yl)pyrimidin-5-yl)-2-methylquinolin-4-yl)amino)-2,2-difluoroethyl)-4-fluorobenzonitrile] | > 6.00
CC(C)(O)c1ncc(-c2cc3c(N[C@@H](c4cc(C#N)ccc4F)C(F)F)c(Cl)cnc3cc2F)cn1 [Example 381, (S)-3-(1-((3-chloro-7-fluoro-6-(2-(2-hydroxypropan-2-yl)pyrimidin-5-yl)quinolin-4-yl)amino)-2,2-difluoroethyl)-4-fluorobenzonitrile] | > 6.00
Cc1nc2cc(F)c(-c3cnc(C(C)(C)O)nc3)cc2c(N[C@H](C)c2cc(C#N)ccc2F)c1Cl [Example 382, (R)-3-(1-((3-chloro-7-fluoro-6-(2-(2-hydroxypropan-2-yl)pyrimidin-5-yl)-2-methylquinolin-4-yl)amino)ethyl)-4-fluorobenzonitrile] | > 6.00
Cc1nc2cc(F)c(-c3cnc(C(C)(C)O)nc3)cc2c(N[C@H](C)c2cccc(C#N)c2)c1Cl [Example 383, (R)-3-(1-((3-chloro-7-fluoro-6-(2-(2-hydroxypropan-2-yl)pyrimidin-5-yl)-2-methylquinolin-4-yl)amino)ethyl)benzonitrile] | > 6.00
CCOC(=O)c1nc2ccc(-c3cnc(C(C)(C)O)nc3)cc2c(N[C@H](C)c2cc(C#N)ccc2F)c1Cl [Example 384, ethyl (R)-3-chloro-4-((1-(5-cyano-2-fluorophenyl)ethyl)amino)-6-(2-(2-hydroxypropan-2-yl)pyrimidin-5-yl)quinoline-2-carboxylate] | 5.00 to 6.00
C[C@@H](Nc1c(Cl)c(C(=O)Nc2cccnc2)nc2ccc(-c3cnc(C(C)(C)O)nc3)cc12)c1cc(C#N)ccc1F [Example 385, (R)-3-chloro-4-((1-(5-cyano-2-fluorophenyl)ethyl)amino)-6-(2-(2-hydroxypropan-2-yl)pyrimidin-5-yl)-N-(pyridin-3-yl)quinoline-2-carboxamide] | 5.00 to 6.00
Cc1nc2ccc(-c3cnc(C(C)(C)O)nc3)cc2c(N[C@H](C)c2cccc(C#N)c2)c1Cl [Example 386, (R)-3-(1-((3-chloro-6-(2-(2-hydroxypropan-2-yl)pyrimidin-5-yl)-2-methylquinolin-4-yl)amino)ethyl)benzonitrile] | > 6.00
Cc1nc2ccc(-c3cnc(C(C)(C)O)nc3)cc2c(N[C@H](C)c2cc(C(N)=O)ccc2F)c1Cl [Example 387, (R)-3-(1-((3-chloro-6-(2-(2-hydroxypropan-2-yl)pyrimidin-5-yl)-2-methylquinolin-4-yl)amino)ethyl)-4-fluorobenzamide] | > 6.00
C[C@@H](Nc1c(Cl)cnc2ccc(-c3cnc(C(C)(C)O)nc3)cc12)c1cc(C(N)=O)ccc1F [Example 388, (R)-3-(1-((3-chloro-6-(2-(2-hydroxypropan-2-yl)pyrimidin-5-yl)quinolin-4-yl)amino)ethyl)-4-fluorobenzamide] | > 6.00
Cc1nc2ccc(-c3cnc(N4CCN(CC(=O)O)CC4)nc3)cc2c(N[C@H](C)c2cc(C(N)=O)ccc2F)c1Cl [Example 389, (R)-2-(4-(5-(4-((1-(5-carbamoyl-2-fluorophenyl)ethyl)amino)-3-chloro-2-methylquinolin-6-yl)pyrimidin-2-yl)piperazin-1-yl)acetic acid] | > 6.00
Cc1nc2ccc(-c3cnc(C(C)(C)O)nc3)cc2c(N[C@@H](c2cc(C(N)=O)ccc2F)C(F)F)c1Cl [Example 390, (S)-3-(1-((3-chloro-6-(2-(2-hydroxypropan-2-yl)pyrimidin-5-yl)-2-methylquinolin-4-yl)amino)-2,2-difluoroethyl)-4-fluorobenzamide] | > 6.00
CC(C)(O)c1ncc(-c2cc3c(N[C@@H](c4cc(C(N)=O)ccc4F)C(F)F)c(Cl)cnc3cc2F)cn1 [Example 391, (S)-3-(1-((3-chloro-7-fluoro-6-(2-(2-hydroxypropan-2-yl)pyrimidin-5-yl)quinolin-4-yl)amino)-2,2-difluoroethyl)-4-fluorobenzamide] | > 6.00
C[C@@H](Nc1c(Cl)cnc2cc(F)c(-c3cnc(C(C)(C)O)nc3)cc12)c1cc(C(N)=O)ccc1F [Example 392, (R)-3-(1-((3-chloro-7-fluoro-6-(2-(2-hydroxypropan-2-yl)pyrimidin-5-yl)quinolin-4-yl)amino)ethyl)-4-fluorobenzamide] | > 6.00
Cc1nc2cc(F)c(-c3cnc(C(C)(C)O)nc3)cc2c(N[C@H](C)c2cc(C(N)=O)ccc2F)c1Cl [Example 393, (R)-3-(1-((3-chloro-7-fluoro-6-(2-(2-hydroxypropan-2-yl)pyrimidin-5-yl)-2-methylquinolin-4-yl)amino)ethyl)-4-fluorobenzamide] | > 6.00
Cc1nc2cc(F)c(-c3cnc(C(C)(C)O)nc3)cc2c(N[C@H](C)c2cccc(C(N)=O)c2)c1Cl [Example 394, (R)-3-(1-((3-chloro-7-fluoro-6-(2-(2-hydroxypropan-2-yl)pyrimidin-5-yl)-2-methylquinolin-4-yl)amino)ethyl)benzamide] | > 6.00
C[C@@H](Nc1c(Cl)c(C(=O)Nc2cccnc2)nc2ccc(-c3cnc(C(C)(C)O)nc3)cc12)c1cc(C(N)=O)ccc1F [Example 395, (R)-4-((1-(5-carbamoyl-2-fluorophenyl)ethyl)amino)-3-chloro-6-(2-(2-hydroxypropan-2-yl)pyrimidin-5-yl)-N-(pyridin-3-yl)quinoline-2-carboxamide] | 5.00 to 6.00
Cc1nc2ccc(-c3cnc(C(C)(C)O)nc3)cc2c(N[C@H](C)c2cc(Cc3ccccc3)ccc2F)c1Cl [Example 396, (R)-2-(5-(4-((1-(5-benzyl-2-fluorophenyl)ethyl)amino)-3-chloro-2-methylquinolin-6-yl)pyrimidin-2-yl)propan-2-ol] | > 6.00
Cc1nc2ccc(-c3cnc(C(C)(C)O)nc3)cc2c(N[C@H](C)c2cc(O)ccc2F)c1Cl [Example 404, (R)-3-(1-((3-chloro-6-(2-(2-hydroxypropan-2-yl)pyrimidin-5-yl)-2-methylquinolin-4-yl)amino)ethyl)-4-fluorophenol] | > 6.00
C[C@@H](Nc1c(Cl)cnc2ccc(-c3cnc(C(C)(C)O)nc3)cc12)c1cc(O)ccc1F [Example 405, (R)-3-(1-((3-chloro-6-(2-(2-hydroxypropan-2-yl)pyrimidin-5-yl)quinolin-4-yl)amino)ethyl)-4-fluorophenol] | > 6.00
Cc1nc2ccc(-c3cnc(C(C)(C)O)nc3)cc2c(N[C@H](C)c2cc(Cl)ccc2F)c1Cl [Example 406, (R)-2-(5-(3-chloro-4-((1-(5-chloro-2-fluorophenyl)ethyl)amino)-2-methylquinolin-6-yl)pyrimidin-2-yl)propan-2-ol] | > 6.00
Cc1nc2ccc(-c3cnc(C(C)(C)O)nc3)cc2c(N[C@H](C)c2cc(C(=O)O)ccc2F)c1Cl [Example 407, (R)-3-(1-((3-chloro-6-(2-(2-hydroxypropan-2-yl)pyrimidin-5-yl)-2-methylquinolin-4-yl)amino)ethyl)-4-fluorobenzoic acid] | 4.60 to 5.00
Cc1nc2ccc(-c3cnc(C(C)(C)O)nc3)cc2c(N[C@H](C)c2cc(C(C)(C)O)ccc2F)c1Cl [Example 408, (R)-2-(5-(3-chloro-4-((1-(2-fluoro-5-(2-hydroxypropan-2-yl)phenyl)ethyl)amino)-2-methylquinolin-6-yl)pyrimidin-2-yl)propan-2-ol, TFA Salt] | > 6.00
CC(=O)c1ccc(F)c([C@@H](C)Nc2c(Cl)cnc3ccc(-c4cnc(C(C)(C)O)nc4)cc23)c1 [Example 409, (R)-1-(3-(1-((3-chloro-6-(2-(2-hydroxypropan-2-yl)pyrimidin-5-yl)quinolin-4-yl)amino)ethyl)-4-fluorophenyl)ethan-1-one] | > 6.00
C[C@@H](Nc1c(Cl)cnc2ccc(-c3cnc(C(C)(C)O)nc3)cc12)c1cc(C(C)(C)O)ccc1F [Example 410, (R)-2-(5-(3-chloro-4-((1-(2-fluoro-5-(2-hydroxypropan-2-yl)phenyl)ethyl)amino)quinolin-6-yl)pyrimidin-2-yl)propan-2-ol] | 5.00 to 6.00
C[C@@H](Nc1c(Cl)cnc2ccc(-c3cnc(C(C)(C)O)nc3)cc12)c1cc(C#Cc2ccccc2)ccc1F [Example 411, (R)-2-(5-(3-chloro-4-((1-(2-fluoro-5-(phenylethynyl)phenyl)ethyl)amino)quinolin-6-yl)pyrimidin-2-yl)propan-2-ol] | 5.00 to 6.00
Cc1nc2ccc(-c3cnc(C(C)(C)O)nc3)cc2c(N[C@H](C)c2cc(-c3nnn[nH]3)ccc2F)c1Cl [Example 412, (R)-2-(5-(3-chloro-4-((1-(2-fluoro-5-(1H-tetrazol-5-yl)phenyl)ethyl)amino)-2-methylquinolin-6-yl)pyrimidin-2-yl)propan-2-ol] | 4.60 to 5.00
C[C@@H](Nc1c(Cl)cnc2ccc(-c3cnc(C(C)(C)O)nc3)cc12)c1cc(-c2nnn(C)n2)ccc1F [Example 413, (R)-2-(5-(3-chloro-4-((1-(2-fluoro-5-(2-methyl-2H-tetrazol-5-yl)phenyl)ethyl)amino)quinolin-6-yl)pyrimidin-2-yl)propan-2-ol] | > 6.00
C[C@@H](Nc1c(Cl)cnc2ccc(-c3cnc(C(C)(C)O)nc3)cc12)c1cc(-c2ncn[nH]2)ccc1F [Example 414, (R)-2-(5-(3-chloro-4-((1-(2-fluoro-5-(1H-1,2,4-triazol-5-yl)phenyl)ethyl)amino)quinolin-6-yl)pyrimidin-2-yl)propan-2-ol] | > 6.00
